The source of these data is patent publication US11639350B2, “Heteroaryldihydropyrimidine derivatives and methods of treating hepatitis B infections” (Janssen Pharmaceutica NV, priority 2018, dated 2023).

The nature of data set [1]: Cytotoxicity determination in HepG2.2.15 cells (CCK-8). It counts as cell-based. To be noted: human, 6 days of compound treatment, CCK-8, highest concentration 100 μM. The procedure: (§1) HBV replication inhibition by the compounds of this invention as well as cytotoxicity determination was determined in cells infected or transfected with HBV, or cells with stably integrated HBV, such as HepG2.2.15 cells (Sells et al. 1987). The method used herein is as follows.
(§2) The HepG2.2.15 cells were seeded into 96-well plate in 2% FBS (Fetal bovine serum) culture medium at the density of 40,000 cells/well and 5,000 cells/well for HBV inhibitory activity and cytotoxicity determination, respectively. After seeding, the cell plates were incubated at 37° C., 5% CO2 overnight. The next day, medium containing compounds were added to treat the cells for 6 days with medium refreshed once in the middle of the treatment. Eight dose points with 3 folds dilution of each compound were adopted and the highest concentration of the compounds was 10 μM and 100 μM for HBV inhibitory activity and cytotoxicity determination, respectively.
After 6 days of compounds treatment, 20 μl CCK-8 (Cell Counting Kit-8 (Tianjin Biolite company)) reagents were added to each well of cytotoxicity assay plates, the plate was incubated at 37° C., 5% CO2 for 2.5 hours and the absorbance at 450 nm wavelength was measured, at the same time the absorbance at 630 nm wavelength was read as reference.
(§3) EC50 and CC50 values are calculated by the GraphPad Prism software and are averages where multiple measurements were made. EC50 values for the other exemplified compounds were either not measured or higher than 1 μM.

Data set [2] concerns HBV. Briefly: HBV inhibitory activity: HBV DNA in the culture medium of HepG2.2.15 cells by q-PCR. It counts as cell-based. The conditions noted are these: Hepatitis B virus, HepG2.2.15, 144 h, HepG2.2.15 cells, 6 days of compound treatment, HBV DNA in culture medium by q-PCR, highest concentration 10 μM; read-out: EC50. The protocol: as §1, §2
The HBV DAN change in the cell culture medium induced by the compounds was measured by q-PCR (quantitative polymerase chain reaction) method. The HBV DNA in the culture medium was extracted using QIAamp 96 DNA Blood Kit according to the manual and then quantified by q-PCR using the primers and probe in the table below: […]
as §3

Each structure is given as a SMILES string.

As to `COC(=O)C1=C(C2CCN(S(=O)(=O)CCO)CC2)NC(c2nccs2)=NC1c1ccc(F)cc1Cl` (single isomer, unassigned) [Compound 185B, Methyl 4-(2-chloro-4-fluorophenyl)-6-(1-((2-hydroxyethyl)sulfonyl)piperidin-4-yl)-2-(thiazol-2-yl)-1,4-dihydropyrimidine-5-carboxylate], the CC50 (in general, the concentration giving 50% cytotoxicity) at 6 days in data set [1] came to 26200 nM. Also, the EC50 – broadly, the concentration that produces a half-maximal response – in data set [2] is 18 nM. As for `COC(=O)C1=C(C2CCN(S(=O)(=O)c3cn[nH]c3)CC2)NC(c2nccs2)=NC1c1ccc(F)c(F)c1Cl` (stereo not shown) [Compound 324, methyl 6-(1-((1H-pyrazol-4-yl)sulfonyl)piperidin-4-yl)-4-(2-chloro-3,4-difluorophenyl)-2-(thiazol-2-yl)-1,4-dihydropyrimidine-5-carboxylate], the cytotoxic concentration (CC50) at 6 days in data set [1] is 9800 nM. The EC50 in data set [2] turned out to be 5 nM. `COC(=O)C1=C(C2CCC(C(=O)O)C2)NC(c2nccs2)=NC1c1cccc(F)c1Cl` (stereo not shown) [Compound 77, 3-(6-(2-Chloro-3-fluorophenyl)-5-(methoxycarbonyl)-2-(thiazol-2-yl)-3,6-dihydropyrimidin-4-yl)cyclopentanecarboxylic Acid] registered a CC50 at 6 days in data set [1] of 34200 nM. Further, in data set [2], the EC50 was determined as 71 nM. For `COC(=O)C1=C([C@H]2CC[C@H](C(=O)O)CC2)NC(c2nccs2)=NC1c1ccc(F)c(F)c1Cl` (relative stereo) [Compound 289A, (trans)-4-(6-(2-chloro-3,4-difluorophenyl)-5-(methoxycarbonyl)-2-(thiazol-2-yl)-3,6-dihydropyrimidin-4-yl)cyclohexanecarboxylic Acid] the same measures were 24200 nM and 15 nM.

Take `COC[C@H](O)CN([C@H]1CC[C@H](C2=C(C(=O)OC)C(c3ccc(F)c(F)c3Cl)N=C(c3nccs3)N2)CC1)S(C)(=O)=O` (single isomer, unassigned) [Compound 245B]: the CC50 at 6 days in data set [1] came out at 12300 nM. In addition, the EC50 in data set [2] amounted to 49 nM.

The molecule `COC(=O)C1=C([C@H]2CC[C@H](O)CC2)NC(c2nccs2)=NC1c1cccc(F)c1Cl` (single isomer, unassigned) [Compound 381A, (trans)-Methyl 4-(2-chloro-3-fluorophenyl)-6-(4-hydroxycyclohexyl)-2-(thiazol-2-yl)-1,4-dihydropyrimidine-5-carboxylate] gave a CC50 at 6 days in data set [1] of 28500 nM. In addition, the EC50 in data set [2] turned out to be 70 nM. `COC(=O)C1=C(C23CC(NS(=O)(=O)c4cccc(C(=O)O)c4)(C2)C3)NC(c2nccs2)=NC1c1ccc(F)cc1Cl` (stereo not shown) [Compound 208B, 3-(N-(3-(6-(2-Chloro-4-fluorophenyl)-5-(methoxycarbonyl)-2-(thiazol-2-yl)-3,6-dihydropyrimidin-4-yl)bicyclo[1.1.1]pentan-1-yl)sulfamoyl)benzoic acid] yielded a CC50 at 6 days in data set [1] of over 100000 nM. Moreover, the EC50 in data set [2] worked out at 280 nM. Regarding `COC(=O)C1=C([C@H]2CC[C@@H](S(=O)(=O)NC(C)C)CC2)NC(c2nccs2)=NC1c1ccc(F)c(F)c1Cl` (single isomer, unassigned) [Compound 234B, (cis)-methyl 4-(2-chloro-3,4-difluorophenyl)-6-(4-(N-isopropylsulfamoyl)cyclohexyl)-2-(thiazol-2-yl)-1,4-dihydropyrimidine-5-carboxylate], in data set [1], the CC50 at 6 days came to 16300 nM. The EC50 in data set [2] stood at 113 nM.

`COC(=O)C1=C([C@H]2C[C@H](NC(C)=O)C2)NC(c2nccs2)=NC1c1ccc(F)cc1Cl` (single isomer, unassigned) [Compound 89R, trans-Methyl 6-(3-acetamidocyclobutyl)-4-(2-chloro-4-fluoro-phenyl)-2-(thiazol-2-yl)-1,4-dihydropyrimidine-5-carboxylate]: the midpoint of cytotoxicity in data set [1], the CC50 at 6 days, lay at 17200 nM. In data set [2], the half-maximal effective concentration (EC50) stood at 112 nM.

In the case of `COC(=O)C1=C(C2CCCC(C(=O)O)CC2)NC(c2nccs2)=NC1c1ccc(F)cc1Cl` (single isomer, unassigned) [Compound 95A, 4-(6-(2-Chloro-4-fluorophenyl)-5-(methoxycarbonyl)-2-(thiazol-2-yl)-3,6-dihydropyrimidin-4-yl)cycloheptanecarboxylic Acid], the half-maximal effective concentration (EC50) in data set [2] was 101 nM.
